How the values were obtained:
[1] = tested on: aptamer 1.12.2 (DNA, aptamer) GATCGGGTGTGGGTGGCGTAAAGGGAGCATCGGACA; test: fluorescence anisotropy titration; conditions: 100 mM Na+ (acetate), 10 mM MgCl2, 10 mM CaCl2; 20 mM Tris-acetate pH 8.4, room temperature
[2] = tested on: Mut2 (DNA, aptamer) GATCGGGTGTGGGTGGCGTAAAGGGAGCATCGG; test: fluorescence anisotropy titration; conditions: 100 mM Na+ (acetate), 10 mM MgCl2, 10 mM CaCl2; 20 mM Tris-acetate pH 8.4, room temperature
[3] = tested on: aptamer 1.12.2 (DNA, aptamer) GATCGGGTGTGGGTGGCGTAAAGGGAGCATCGGACA; test: fluorescence anisotropy competition; conditions: 100 mM Na+ (acetate), 10 mM MgCl2, 10 mM CaCl2, 20 mM Tris-acetate pH 8.4, 90 nM aptamer
[4] = tested on: aptamer–ssDNA {6–15} complex (DNA, duplex) GATCGGGTGTGGGTGGCGTAAAGGGAGCATCGGACA/CACCCACACC; test: circular dichroism; conditions: 100 mM Na+ (acetate), 10 mM MgCl2, 10 mM CaCl2; 20 mM Tris-acetate pH 8.4, room temperature; 1 µM complex, up to 10 µM OTA
[5] = tested on: aptamer 1.12.2 (DNA, aptamer) GATCGGGTGTGGGTGGCGTAAAGGGAGCATCGGACA; test: ITC; conditions: 100 mM Na+ (acetate), 10 mM MgCl2, 10 mM CaCl2; 20 mM Tris-acetate pH 8.4, 25 °C; one-site model

| KD [1] | KD [2] | L50 ([3]; tracer 5 nM OTA-Flu displaced) | KI ([3]; tracer OTA-Flu displaced) | binding [4] | KD [5] | Structure (SMILES) |
| --- | --- | --- | --- | --- | --- | --- |
| 0.183 ± 0.014 µM | 0.192 µM |  |  |  |  | C[C@@H]1Cc2c(Cl)cc(C(=O)N[C@@H](Cc3ccccc3)C(=O)NCc3c(O)ccc4c3Oc3cc(O)ccc3C43OC(=O)c4ccccc43)c(O)c2C(=O)O1 (stereo partly drawn) |
|  |  | 106.2 ± 6.4 nM | 0.0363 ± 0.0021 µM | no | 0.131 ± 0.032 µM | C[C@@H]1Cc2c(Cl)cc(C(=O)N[C@@H](Cc3ccccc3)C(=O)O)c(O)c2C(=O)O1 |

Reference: PMC9103105 (2022)
